Measurements as given in US20130302282A1, “Inhibitors of Hepatitis C Virus” (priority 2010, published 2013).
pEC50: −log10 of the molar value. Read-outs that look alike come from different tables or passages of the source.

Columns and labels:
HCV 1a = HCV 1a replicon assay; assay type: cell-based; details: Hepatitis C virus; class symbol; cell marked (HCV genotype 1a replicon); read-out: Inhibition of HCV genotype 1a replicon
Description: (§1) Compounds of the invention can inhibit multiple genotypes of HCV selected but not limited to 1a, 1h, 2a, 3a, and 4a. The EC50s are measured in the corresponding replicon assays that are similar to HCV 1b replicon assay as described above.
(§2) The biological activity against HCV 1b, 1a, or 2a is indicated as being *, **, ***, or ****, which corresponds to EC50 ranges of EC50>1000 nM, 100 nM<EC50≦1000 nM, 10 nM<EC50≦100 nM, or EC50≦10 nM, respectively. The biological activity against HCV NS5B C316Y or S365A mutant is indicated as being […], which corresponds to EC50 ranges of EC50>1000 nM, 200 nM<EC50≦1000 nM, […], respectively.

[1] = system: 1b_Huh-Luc/Neo-ET cell line (bicistronic genotype 1b replicon in Huh 7 cells); experiment: HCV 1b replicon assay, luciferase readout; assay type: cell-based, HCV genotype 1b; details: Hepatitis C virus
Outline: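 Huh 7 cells persistently carrying a bicistronic genotype 1b luciferase replicon, treated with compound in triplicate the day after plating and incubated 72 h. Luciferase activity measured by Bright-Glo and expressed as percent of untreated control; EC50 from four-parameter fit, repeated several times.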

HCV 2a = HCV 2a replicon assay; assay type: cell-based; details: Hepatitis C virus; class symbol; cell marked (HCV genotype 2a replicon); read-out: Inhibition of HCV genotype 2a replicon
Description: as §1, §2

[2] = Huh-7, 1b_Huh-Luc/Neo-ET cell line, read-out: EC50, half-maximal inhibition of HCV 1b replication
[3] = Huh-7, class symbol, HCV genotype 1b replicon, read-out: Inhibition of HCV genotype 1b replicon

Row | SMILES | pEC50 (HCV 1a) | pEC50 [1, 2] | pEC50 (HCV 2a) | pEC50 [1, 3]
1 | [2H]C([2H])([2H])NC(=O)c1c(-c2ccc(F)cc2)oc2cc3c(cc12)C(C)N(C)CCN3S(C)(=O)=O (stereo not shown) [Compound B152] | 6.00 to 7.00 |  |  | 
2 | CNC(=O)c1c(-c2ccc(F)cc2)oc2cc3c(cc12)C(CF)OCCN3S(C)(=O)=O (stereo not shown) [Compound B153] | 7.00 to 8.00 | 7.00 to 8.00 |  | 
3 | CNC(=O)c1c(-c2ccc(F)cc2)oc2cc3c(cc12)CCCCN3S(N)(=O)=O [Compound B102] | 6.00 to 7.00 |  |  | 
4 | CS(=O)(=O)N1CCCCc2cc3c(C(=O)NC#N)c(-c4ccc(F)cc4)oc3cc21 [Compound B64] |  |  | < 6.00 | 
5 | CNC(=O)c1c(-c2ccc(F)cc2)oc2cc3c(cc12)CCCCN3C(C)=O [Compound B80] | < 6.00 |  |  | 
6 | CNC(=O)c1c(-c2ccc(Oc3ccc(Cl)cc3)cc2)nn2cc3c(cc12)C(C)CCCN3S(C)(=O)=O (stereo not shown) [Compound B99] |  |  | 6.00 to 7.00 | 
7 | [2H]C([2H])([2H])NC(=O)c1c(-c2ccc(F)cc2)oc2cc3c(cc12)CCCCCN3S(C)(=O)=O [Compound B113] | 7.00 to 8.00 | 7.00 to 8.00 |  | 
8 | CNC(=O)c1c(-c2ccc(F)cc2)nn2cc3c(cc12)C(O)CCCN3S(C)(=O)=O (stereo not shown) [Compound B73] |  |  | < 6.00 | 
9 | CNC(=O)c1c(-c2ccc(Oc3ccc(F)cc3)cc2)nn2cc3c(cc12)C(C)CCCN3S(C)(=O)=O (stereo not shown) [Compound B76] |  |  | 6.00 to 7.00 | 
10 | [2H]C([2H])([2H])NC(=O)c1c(-c2ccc(F)cc2)oc2cc3c(cc12)CCCCN3S(C)(=O)=O [Compound B112] | 7.00 to 8.00 | 7.00 to 8.00 |  | 
11 | CNC(=O)c1c(-c2ccc(F)cc2)oc2cc3c(cc12)C(C)C(C)(C)CCN3S(C)(=O)=O (stereo not shown) [Compound B115] | 7.00 to 8.00 | 7.00 to 8.00 |  | 
12 | CNC(=O)c1c(-c2ccc(F)cc2)oc2cc3c(cc12)C(=O)CCCCN3S(C)(=O)=O [Compound B82] | 6.00 to 7.00 |  |  | 
13 | CNC(=O)c1c(-c2ccc(F)cc2)oc2cc3c(cc12)C(C)=CCN3S(C)(=O)=O [Compound B11] |  |  | < 6.00 | 
14 | C=CC1CCCN(S(C)(=O)=O)c2cc3oc(-c4ccc(F)cc4)c(C(=O)NC)c3cc21 (stereo not shown) [Compound B60] |  | 7.00 to 8.00 | 7.00 to 8.00 | 
15 | CNC(=O)c1c(-c2ccc(F)cc2)oc2cc3c(cc12)C(C)N(C(C)=O)CCN3S(C)(=O)=O (stereo not shown) [Compound B110] | 6.00 to 7.00 |  |  | 
16 | CNC(=O)c1c(-c2ccc(F)cc2)oc2cc3c(cc12)C(O)C(C)CCN3S(C)(=O)=O (stereo not shown) [Compound B78] |  |  | 6.00 to 7.00 | 
17 | CNC(=O)c1c(-c2ccc(F)cc2)oc2cc3c(cc12)C(C)N(CCCO)CCN3S(C)(=O)=O (stereo not shown) [Compound B154] | 7.00 to 8.00 | 7.00 to 8.00 |  | 
18 | CNC(=O)c1c(-c2ccc(F)cc2)oc2cc3c(cc12)C=C(C)CCN3S(C)(=O)=O [Compound B79] |  |  | < 6.00 | 
19 | CNC(=O)c1c(-c2ccc(Oc3ccc(F)cc3)cc2)oc2cc3c(cc12)C(C)N(C)CCN3S(C)(=O)=O (stereo not shown) [Compound B151] | 7.00 to 8.00 | 7.00 to 8.00 |  | 
20 | CNC(=O)c1c(-c2ccc(F)cc2)oc2cc3c(cc12)C(=O)C(C)(C)CCN3S(C)(=O)=O [Compound B100] |  | 7.00 to 8.00 | 7.00 to 8.00 | 

Row | SMILES | pEC50 (HCV 1a) | pEC50 [1, 2] | pEC50 (HCV 2a) | pEC50 [1, 3]
21 | CNC(=O)c1c(-c2ccc(F)cc2)oc2cc3c(cc12)C1(CCCCN3S(C)(=O)=O)CC1 [Compound B104] | 6.00 to 7.00 |  |  | 
22 | [2H]C([2H])([2H])NC(=O)c1c(-c2ccc(F)cc2)oc2cc3c(cc12)C(C)CCCN3S(C)(=O)=O (stereo not shown) [Compound B121] | > 8.00 | ≥ 8.00 |  | 
23 | CNC(=O)c1c(-c2ccc(F)cc2)nn2cc3c(cc12)C(=O)CCCN3S(C)(=O)=O [Compound B69] |  |  | < 6.00 | 
24 | CNC(=O)c1c(-c2ccccc2)nn2cc3c(cc12)C(C)CCCN3S(C)(=O)=O (stereo not shown) [Compound B105] | 6.00 to 7.00 |  |  | 
25 | CNC(=O)c1c(-c2ccc(F)cc2)nn2cc3c(cc12)C=CCCN3S(C)(=O)=O [Compound B74] |  |  | < 6.00 | 
26 | CNC(=O)c1c(-c2ccc(F)cc2)oc2cc3c(cc12)C(C)N(C(=O)OCc1ccccc1)CCN3S(C)(=O)=O (stereo not shown) [Compound B111] | 7.00 to 8.00 | 7.00 to 8.00 |  | 
27 | CNC(=O)c1c(-c2ccc(F)cc2)oc2cc3c(cc12)C(OC)CCCN3S(C)(=O)=O (stereo not shown) [Compound B71] |  | 7.00 to 8.00 | 7.00 to 8.00 | 
28 | CS(=O)(=O)N1CCCCc2cc3c(-c4nnn[nH]4)c(-c4ccc(F)cc4)oc3cc21 [Compound B65] |  |  | < 6.00 | 
29 | CNC(=O)c1c(-c2ccc(Oc3ccc(F)cc3)cc2)oc2cc3c(cc12)[C@@H](C)OCCN3S(C)(=O)=O [Compound B117] | 6.00 to 7.00 |  |  | 
30 | C=C1CCCN(S(C)(=O)=O)c2cn3nc(-c4ccc(F)cc4)c(C(=O)NC)c3cc21 [Compound B68] |  |  | < 6.00 | 
31 | CNC(=O)c1c(-c2ccc(F)cc2)oc2cc3c(cc12)C(C)N(CC1CC1)CCN3S(C)(=O)=O (stereo not shown) [Compound B108] | 7.00 to 8.00 | 7.00 to 8.00 |  | 
32 | CCC1CCCN(S(C)(=O)=O)c2cc3oc(-c4ccc(F)cc4)c(C(=O)NC)c3cc21 (stereo not shown) [Compound B63] |  | 7.00 to 8.00 | 7.00 to 8.00 | 
33 | C=C1c2cc3c(C(=O)NC)c(-c4ccc(F)cc4)oc3cc2N(S(C)(=O)=O)CCC1(C)C [Compound B101] |  | 7.00 to 8.00 | 7.00 to 8.00 | 
34 | CNC(=O)c1c(-c2ccc(F)cc2)oc2cc3c(cc12)C(C)N(CCc1ccc(F)cc1)CCN3S(C)(=O)=O (stereo not shown) [Compound B155] | 7.00 to 8.00 | 7.00 to 8.00 |  | 
35 | CNC(=O)c1c(-c2ccc(F)cc2)oc2cc3c(cc12)[C@@H](C)N1CCC[C@H]1CN3S(C)(=O)=O (single isomer, unassigned) [Compound B122] | < 6.00 |  |  | 
36 | CNC(=O)c1c(-c2ccc(F)cc2)oc2cc3c(cc12)C(C)CCN3S(C)(=O)=O (stereo not shown) [Compound B10] |  |  | 6.00 to 7.00 | 
37 | CNC(=O)c1c(-c2ccc(F)cc2)oc2cc3c(cc12)CCCCN3S(=O)(=O)N(C)C [Compound B103] | 6.00 to 7.00 |  |  | 
38 | CNC(=O)c1c(-c2ccc(Oc3ccc(F)cc3)cc2)oc2cc3c(cc12)[C@@H]1C[C@@H]1CCN3S(C)(=O)=O (single isomer, unassigned) [Compound B146] | 7.00 to 8.00 | 7.00 to 8.00 |  | 
39 | CNC(=O)c1c(-c2ccc(F)cc2)oc2cc3c(cc12)C(=O)C(C)CCN3S(C)(=O)=O (stereo not shown) [Compound B77] |  |  | 6.00 to 7.00 | 
40 | CNC(=O)c1c(-c2ccc(Oc3ccc(F)cc3)cc2)oc2cc3c(cc12)C1(CCCN3S(C)(=O)=O)CC1 [Compound B141] | 6.00 to 7.00 |  |  | 

Row | SMILES | pEC50 (HCV 1a) | pEC50 [1, 2] | pEC50 (HCV 2a) | pEC50 [1, 3]
41 | CNC(=O)c1c(-c2ccc(F)cc2)oc2cc3c(cc12)C(C)=CCCN3S(C)(=O)=O [Compound B62] |  |  | < 6.00 | 
42 | CNC(=O)c1c(-c2ccc(F)cc2)oc2cc3c(cc12)/C(C)=C\CCCN3S(C)(=O)=O [Compound B81] | 6.00 to 7.00 |  |  | 
43 | CNC(=O)c1c(-c2ccc(Oc3ccc(F)cc3)cc2)oc2cc3c(cc12)C(C)OCCN3S(C)(=O)=O (stereo not shown) [Compound B116] | 7.00 to 8.00 | 7.00 to 8.00 |  | 
44 | CNC(=O)c1c(-c2ccc(F)cc2)nn2cc3c(cc12)OCCCN3S(C)(=O)=O [Compound B70] |  |  | < 6.00 | 
45 | CNC(=O)c1c(-c2ccc(F)cc2)oc2cc3c(cc12)C(C)N(CC(=O)N(C)C)CCN3S(C)(=O)=O (stereo not shown) [Compound B150] | 7.00 to 8.00 | 7.00 to 8.00 |  | 
46 | CNC(=O)c1c(-c2ccc(Oc3ccc(F)cc3)cc2)oc2cc3c(cc12)[C@H]1C[C@H]1CCN3S(C)(=O)=O (single isomer, unassigned) [Compound B143] | 6.00 to 7.00 |  |  | 
47 | CNC(=O)c1c(-c2ccc(F)cc2)nn2cc3c(cc12)C(C)=CCCN3S(C)(=O)=O [Compound B72] |  |  | < 6.00 | 
48 | CS(=O)(=O)N1CCCCc2cc3c(C4=NCCN4)c(-c4ccc(F)cc4)oc3cc21 [Compound B66] |  |  | < 6.00 | 
49 | CNC(=O)c1c(-c2ccc(Oc3ccc(F)cc3)cc2)oc2cc3c(cc12)C1CC1CCN3S(C)(=O)=O (stereo not shown) [Compound B140] | 6.00 to 7.00 |  |  | 
50 | CNC(=O)c1c(-c2ccc(Oc3cccc(Cl)c3)cc2)nn2cc3c(cc12)C(C)CCCN3S(C)(=O)=O (stereo not shown) [Compound B98] |  |  | 6.00 to 7.00 | 
51 | CCCN1CCN(S(C)(=O)=O)c2cc3oc(-c4ccc(F)cc4)c(C(=O)NC)c3cc2C1C (stereo not shown) [Compound B137] | 7.00 to 8.00 | 7.00 to 8.00 |  | 
52 | C=C1CCCN(S(C)(=O)=O)c2cc3oc(-c4ccc(F)cc4)c(C(=O)NC)c3cc21 [Compound B61] |  |  | < 6.00 | 
53 | [2H]C([2H])([2H])NC(=O)c1c(-c2ccc(Oc3ccc(F)cc3)cc2)oc2cc3c(cc12)C(C)OCCN3S(C)(=O)=O (stereo not shown) [Compound B119] | 7.00 to 8.00 | 7.00 to 8.00 |  | 
54 | CNC(=O)c1c(-c2ccc(F)cc2)oc2cc3c(cc12)C(C)OC(CN1CCOCC1)CN3S(C)(=O)=O (stereo not shown) [Compound B205] |  | 7.00 to 8.00 |  | 7.00 to 8.00
55 | CNC(=O)c1c(-c2ccc(F)cc2)oc2cc3c(cc12)C(C)N(C(=O)OC)CCN3S(C)(=O)=O (stereo not shown) [Compound B109] | 7.00 to 8.00 | 7.00 to 8.00 |  | 
56 | CNC(=O)c1c(-c2ccc(F)cc2)oc2cc3c(cc12)CCCCCCN3S(C)(=O)=O [Compound B19] |  | 7.00 to 8.00 |  | 7.00 to 8.00
57 | CS(=O)(=O)N1CCCCc2cc3c(C#N)c(-c4ccc(F)cc4)oc3cc21 [Compound B53] |  |  |  | < 6.00
58 | CNC(=O)c1c(-c2ccc(F)cc2)oc2cc3c(cc12)C(=O)N(C)CCN3S(C)(=O)=O [Compound B106] | 7.00 to 8.00 | 7.00 to 8.00 |  | 
